From patent US20190038597A1, “PREVENTION OF VASCULAR AND CARDIAC FIBROSIS VIA IRE1ALPHA INHIBITION” (McMaster University, priority 2017, published 2019)

What was measured:
[1] = tested on: GRP78, GRP94 and PDI; assay: Western blot of ER chaperone / ER stress marker expression in VSMCs; type: cell-based, rat; details: 24 h tunicamycin treatment, FIG. 1B
Description: (§1) VSMCs were treated with tunicamycin (1 μg/ml) and either 4μ8c (30 μM) or STF-083010 (60 μM) for 6 h or 24 h. (A) Agarose gel for assessment of XBP1 splicing after 6 h of treatment with tunicamycin and densitometric quantification. (B) Western blot for assessment of ER chaperone expression after 24 h tunicamycin treatment with or without inhibition of IRE1α by 4μ8c. Data is presented as mean±SEM. *, p<0.05 vs. Vehicle; #, p<0.05 vs. Tm.
(§2) VSMCs were cultured in DMEM/F12 containing 1% FBS. Confluent cells were treated with L-ascorbic acid-2-phosphate (100 μg/ml) and either TGF-β1 (5 ng/ml) or Ang II (1 μM). (A) Agarose gel for assessment of TGF-β1-induced XBP1 splicing in VSMCs after 24 h. (B) Picro-Sirius Red assay for measurement of collagen deposition induced by combined TGF-β1 and AA2P treatment after 72 h, and inhibition by 4μ8c and STF-083010. (C) Western blot for assessment of collagen chaperone expression after treatment of TGF-β1 and 4μ8c for 48 h. *, p<0.05. (D) Measurement of Ang II-induced collagen production and inhibition by 4μ8c and STF-083010 after 72 h.
VSMCs were isolated from the aortas of 5-week old WKY rats using the explant method^29. The thoracic aorta was removed from the animal and placed in ice-cold 5× Antibiotics-Antimycotics solution (ThermoFisher). The adventitia was gently removed and the aorta was cut longitudinally. The endothelial layer was removed by gentle scraping with forceps. The aorta was cut into 3 mm^2 squares and placed on a 6 well plate in DMEM/F12 medium containing 10% fetal bovine serum (FBS). Explants were incubated undisturbed in a 5% CO2 incubator at 37° C. for 1 week and then passaged. […]
Cells were lysed in 1× Laemmli buffer and protein content was quantified using the BioRad DC Protein Assay (BioRad, Mississauga, Canada). […]

[2] = tested on: VSMCs; assay: Picro-Sirius Red assay of collagen synthesis in VSMCs; type: cell-based, rat
Description: as §2
VSMCs were isolated from the aortas of 5-week old WKY rats using the explant method^29. The thoracic aorta was removed from the animal and placed in ice-cold 5× Antibiotics-Antimycotics solution (ThermoFisher). The adventitia was gently removed and the aorta was cut longitudinally. The endothelial layer was removed by gentle scraping with forceps. The aorta was cut into 3 mm^2 squares and placed on a 6 well plate in DMEM/F12 medium containing 10% fetal bovine serum (FBS). Explants were incubated undisturbed in a 5% CO2 incubator at 37° C. for 1 week and then passaged. Sprague-Dawley renal fibroblasts were purchased (Cell Biologics) and cultured in low glucose DMEM/F12 medium containing 10% FBS, streptomycin (100 μgimp, and penicillin (100 U/ml, Invitrogen, Burlington, ON). Cells between passages 5 and 10 were used for experiments. Cells were cultured in medium containing 1% FBS overnight before treatment.
Collagen synthesis was measured using a Picro-Sirius Red-based assay as previously described^30. Briefly, cells cultured on a 96 well plate were fixed in methanol for 10 minutes at −20° C. Cells were washed once with PBS and incubated with Picrosirius Red stain (0.1% Direct Red 80 in saturated picric acid) for 1 h at room temperature. After the staining solution was removed, the cells were washed three times with 0.1% acetic acid and then imaged. The dye was then eluted with 0.1 N NaOH for 10 minutes on a rocking platform. Absorbance at 540 nm was measured using a Spectramax Plus Microplate Reader (Molecular Devices).
Cells were co-treated with either 4μ8c or S′TF-083010 to inhibit IRE1α endonuclease activity. TGF-β1 induced XBP1 splicing after 24 h, which was blocked by co-treatment with 4μ8c (FIG. 2A). Collagen production was measured using a Picro-Sirius Red-based colorimetric assay. TGF-β1 combined with AA2P induced collagen synthesis in the VSMCs, which was inhibited by co-treatment with 4μ8c or STF-083010 (FIG. 2B).

[3] = biological target: T1, IRE1α endonuclease (Rattus norvegicus, UniProt A0A4Y1YQ52); assay: XBP1 splicing assay in VSMCs; type: cell-based; details: tunicamycin (1 μg/ml) 6 h, 4μ8c 30 μM or STF-083010 60 μM, FIG. 1A
T1 construct: endogenous in cells; host or cells: primary aortic vascular smooth muscle cells from 5-week old WKY rats
Description: as §1, §2
VSMCs were isolated from the aortas of 5-week old WKY rats using the explant method^29. The thoracic aorta was removed from the animal and placed in ice-cold 5× Antibiotics-Antimycotics solution (ThermoFisher). The adventitia was gently removed and the aorta was cut longitudinally. The endothelial layer was removed by gentle scraping with forceps. […]
Total RNA was extracted from cultured cells and rat tissues using the TRIzol reagent (ThermoFisher) according to manufacturer's instructions. RNA concentration and purity were measured using a Nanodrop ND-1000 spectrophotometer (NanoDrop Technologies, Inc.). […]
Aortic VSMCs were isolated from normotensive WKY rats and used for in vitro experiments. […] To test the ability of these compounds to block the IRE1α endonuclease, XBP1 splicing was measured in VSMCs treated with the ER stress inducer tunicamycin for 6 h with or without pre-treatment by 4μ8c or STF-083010. […]

T1 sequence (A0A4Y1YQ52 21-977): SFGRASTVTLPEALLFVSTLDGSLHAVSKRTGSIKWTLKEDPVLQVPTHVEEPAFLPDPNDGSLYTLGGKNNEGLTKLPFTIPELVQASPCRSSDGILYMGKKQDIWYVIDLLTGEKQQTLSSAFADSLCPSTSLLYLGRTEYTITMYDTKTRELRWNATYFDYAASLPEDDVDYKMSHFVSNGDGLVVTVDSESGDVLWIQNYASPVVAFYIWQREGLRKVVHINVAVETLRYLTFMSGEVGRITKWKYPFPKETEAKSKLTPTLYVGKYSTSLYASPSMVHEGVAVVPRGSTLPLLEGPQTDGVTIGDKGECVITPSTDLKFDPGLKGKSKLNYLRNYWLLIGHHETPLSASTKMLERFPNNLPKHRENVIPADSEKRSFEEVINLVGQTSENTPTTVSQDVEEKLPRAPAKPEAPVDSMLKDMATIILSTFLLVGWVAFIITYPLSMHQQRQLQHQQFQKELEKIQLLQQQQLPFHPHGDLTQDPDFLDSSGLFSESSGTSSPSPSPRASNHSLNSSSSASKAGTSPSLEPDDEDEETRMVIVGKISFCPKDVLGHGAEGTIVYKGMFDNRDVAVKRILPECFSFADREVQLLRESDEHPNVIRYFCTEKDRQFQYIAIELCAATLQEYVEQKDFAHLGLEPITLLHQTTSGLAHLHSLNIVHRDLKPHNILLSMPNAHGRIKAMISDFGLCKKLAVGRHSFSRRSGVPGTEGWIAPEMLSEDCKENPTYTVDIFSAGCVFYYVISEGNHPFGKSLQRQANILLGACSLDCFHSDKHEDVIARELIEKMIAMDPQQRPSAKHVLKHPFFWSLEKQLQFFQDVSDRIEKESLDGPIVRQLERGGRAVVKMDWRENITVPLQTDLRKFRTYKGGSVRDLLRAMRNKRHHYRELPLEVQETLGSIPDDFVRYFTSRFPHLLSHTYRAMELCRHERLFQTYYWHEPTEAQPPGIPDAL

spliced-to-unspliced XBP1 ratio [3]: reduced
Compound: O=S(=O)(/N=C/c1c(O)ccc2ccccc12)c1cccs1 [STF-083010, N-[(2-Hydroxy-1-naphthyl)methylene]-2-thiophenesulfonamide]
elevated expression levels of ER stress markers GRP78, GRP94 and PDI [1]: reduced | collagen synthesis induced by TGF-β1 combined with AA2P ([2]; 72 h, co-treatment, FIG. 2B): inhibited | collagen synthesis induced by Ang II ([2]; Ang II (1 μM) 72 h, FIG. 2D): inhibition
